The nature of data set [1]: Cohesive energy (solubility-parameter) components by the PSP/LSER method.
A short description of data set [2]: Differential scanning calorimetry (enthalpy of fusion). It counts as physicochemical. The note with it: DSC, 10 °C/min, triplicate. As to the method:
Differential scanning calorimetry (DSC) thermograms were obtained using a DSC 1 instrument from Mettler-Toledo AG (Greifensee, Switzerland). The instrument was calibrated for temperature and enthalpy using indium. Nitrogen was used as protective gas (150 mL/min). Samples (2–3 mg) were placed in 40 μL aluminum pans with pierced aluminum lids (Mettler-Toledo AG, Greifensee, Switzerland). The melting onset temperature (Tm) and the enthalpy of fusion (ΔHf) were determined by heating the samples at 10 °C/min from 25 °C to a maximum temperature of 300 °C. All DSC measurements were carried out in triplicate.
Background: DSC measures the heat that a sample takes up or gives off during a temperature scan.

A short description of data set [3]: LSER descriptors by PSP approach from experimental inverse gas chromatography (IGC) data. As to conditions: initial or tentative estimates; for A (PSP): LSER acidity descriptor; for B (PSP): LSER basicity descriptor; for S (PSP): LSER polarity descriptor. It is filed as physicochemical. As for the experimental part:
(§1) Inverse gas chromatography (IGC) was used to analyze solid samples packed into a chromatographic column as stationary phase. The equipment was a surface energy analyzer (iGC-SEA) from Surface Measurement Systems Ltd. (London, UK) and about 200 mg of each drug was inserted into silanized glass columns (3 mm inner diameter) by employing a standardized packing method with silanized glass wool that was used at both ends of the column as fixation. Prior to each measurement, the samples were conditioned for 1 h at 30 °C with dry helium with 0% relative humidity at a flow rate of 15 standard cubic centimeters per minute (sccm). Dead volume of the system was determined by injecting the inert probe methane prior and after each measurement. This stationary phase was flushed with an inert carrier gas—helium in the present study. Measuring conditions were the same as applied for sample conditioning, except for a flow rate of 10 sccm that was used. For all experiments, a relative surface coverage of 5% was selected.
The extent of interactions between the solid phase of interest and the probe gas is obtained by the net retention volume VN:(31) VN=j/mF(tR−t0)T/273.15, where T is the column temperature, F is the carrier gas flow rate at 1 atm and 273.15 K, m is the sample mass, tR is the retention time of the absorbed probe gas and t0 is the mobile phase hold up time, and finally, j represents the James–Martin correction (that adjusts retention time for the pressure drop effect in the column bed). The calculated retention volume VN is then used to estimate the mass activity coefficient, Ω at infinite dilution:(32) ln(Ω)=ln(273.15R/p0M1VN)−p0(B11−V1)/RT, where po is the saturation pressure and M is the molecular mass, while B11 is the second virial coefficient and V1 holds for molar volume of the probe gas. Conversion of the mass activity coefficient Ω to mole fraction activity coefficient γ (at infinite dilution) is done via the following equation:(33) lnγ1res,∞=ln(Ω1M1/M2)−(lnr1/r2+1−r1/r2)=r1χ12. and provided the basis for further thermodynamic analysis, as described in the Results section.
The PSP approach was used to characterize the studied drugs, that is, to determine their LSER descriptors from the experimental IGC data. The McGowan volume, Vx, is an atom-specific quantity and, thus, it is obtained either from the ACD software or from the freely accessible database via their SMILES form. […].
A and B descriptors were then obtained from IGC data with hydrogen-bonding probes (acidic, like chloroform, basic, like acetone, and homosolvated, like ethanol) correlated with Equation (34).

Data set [4] in a line: Surface energy components by IGC with the PSP/LSER method. As to conditions: for γd (dispersion component of surface energy): IGC, Dorris–Gray method, amorphous drug, 30 °C; for γhb (hydrogen-bonding surface energy component) / γtot (total surface energy) / γa (acidic surface energy component) / γb (basic surface energy component): PSP/LSER method; for γtot (total surface energy): Equation (36); for γa (acidic surface energy component) / γb (basic surface energy component): Equation (27), unit assumed. It is filed as physicochemical. As for the experimental part: as §1
The PSP framework can also be used for the estimation of the surface energy components of the studied drugs. However, there are practically no data on the total surface energies of drugs available in the literature. Instead, the dispersion components, γd, were determined by the Dorris–Gray method. This dispersion component is practically equivalent to our nonhydrogen-bonding component, γVES. Thus, we may use Equation (29) in the equivalent form of Equation (36) and obtain the total surface energy of the drugs, γtot: (36) γtot=γd3.1Vx+E+S+2AB/3.1Vx+E+S.
In a similar manner, the acidity and basicity components of the surface energy are obtained from Equation (27).

Data set [5] in a line: Residual solid XRPD analysis after solubility equilibration in solvents. It is filed as physicochemical. As to conditions: 24 h equilibration at room temperature in solvent. As for the experimental part:
All experiments were performed in triplicate. The drug concentration in the solvent bulk phase was determined simultaneously with a residual solid analysis of the drug by means of XRPD to detect possible solvent-mediated phase changes. Such residual solid analysis has been published before for a different miniaturized assay. […] The closed vials were equilibrated for 24 h by magnetic stirring at room temperature. […] An isocratic flow of a mixture of solvent A and solvent B was initially applied for 0.3 min at a flow rate of 0.75 mL/min. […] Table 1 summarizes the experimental conditions (initial composition of mobile phase, detection wave length) used for the different drugs. For solid state analysis, approx. 10-20 mg of the residual wet solids was manually transferred into a 96-well MultiScreen® Solubility Filter Plate (Millipore, Bedford, MA, USA) by a spatula. The filter plate was immediately sealed with adhesive acetate foil for microtest well plates (Sarstedt Inc., Newton, NC, USA) to minimize solvent evaporation. Solid state analysis of residual solids was based on a high-throughput XRPD method using a […] […] Samples were analyzed directly in the 96-well filter plate with an exposure time of 5 min per well.

The structures appear in SMILES notation.

In the case of `CCOC(=O)N1CCC(=C2c3ccc(Cl)cc3CCc3cccnc32)CC1` [Loratadine, loratadine], in data set [1], the “σd (dispersion PSP)” value is on record as 19.11 MPa^0.5 and the “σp (polarity PSP)” value is given as 9.87 MPa^0.5. Further, in data set [2], the “ΔH^m (heat of fusion)” value was 6.685 ± 0.043 kcal/mol. Besides, in data set [3], the “A (PSP)” value is 0.00, the “B (PSP)” value is 0.6 ± 0.2 and the “S (PSP)” value is recorded as 2.96. Besides, in data set [4], the “γd (dispersion component of surface energy)” value was 41.6 mJ/m^2, the “γhb (hydrogen-bonding surface energy component)” value (from here on “γhb”) turned out to be 0.00 mJ/m^2 and the “γtot (total surface energy)” value is 41.60 mJ/m^2.

Regarding `CC(=O)N1CCN(c2ccc(OCC3COC(Cn4ccnc4)(c4ccc(Cl)cc4Cl)O3)cc2)CC1` (stereo not shown) [Ketoconazole, ketoconazole], in data set [1], the “σGa (acidity PSP)” value is listed as 0.00 MPa^0.5, the “σGb (basicity PSP)” value is given as 4.26 MPa^0.5, the “σd (dispersion PSP)” value worked out at 19.52 MPa^0.5 and the “σhb (hydrogen-bonding PSP)” value was 0.00 MPa^0.5. Also, in data set [1], the “σp (polarity PSP)” value is recorded as 8.45 MPa^0.5 and the “σtot (square root of total cohesive energy density, equivalent to δtot)” value was 21.27 MPa^0.5. For the same molecule, the “ΔH^m (heat of fusion)” value in data set [2] is 12.71 ± 0.141 kcal/mol. Further, in data set [3], the “A (PSP)” value is given as 0.00, the “B (PSP)” value is 0.7 ± 0.3 and the “S (PSP)” value was 2.75. Moreover, in data set [4], the “γd (dispersion component of surface energy)” value is 45.86 mJ/m^2, the “γhb” value was 0.00 mJ/m^2, the γa (acidic surface energy component) was 0 mJ/m^2 and the γb (basic surface energy component) is 1.84 mJ/m^2. In data set [4], the “γtot (total surface energy)” value is 45.86 mJ/m^2.

For the molecule `COc1ccccc1OCCNCC(O)COc1cccc2[nH]c3ccccc3c12` (stereo not shown) [Carvedilol, carvedilol], the “Residual solid form after solubility equilibration (XRPD)” value in data set [5] was “a changed solid form in dichloromethane after equilibration”. In addition, in data set [1], the “σGa (acidity PSP)” value was determined as 3.92 MPa^0.5, the “σGb (basicity PSP)” value is 6.68 MPa^0.5, the “σd (dispersion PSP)” value was 19.75 MPa^0.5 and the “σhb (hydrogen-bonding PSP)” value amounted to 8.14 MPa^0.5. The “σp (polarity PSP)” value in data set [1] is listed as 9.91 MPa^0.5. In addition, in data set [2], the “ΔH^m (heat of fusion)” value worked out at 11.32 ± 0.0884 kcal/mol. In data set [3], the “A (PSP)” value was 0.50, the “B (PSP)” value is recorded as 1.45 and the “S (PSP)” value is reported as 3.19. In data set [4], the “γd (dispersion component of surface energy)” value was found to be 47.83 mJ/m^2, the “γhb” value is reported as 5.13 mJ/m^2, the γa (acidic surface energy component) stood at 1.51 mJ/m^2 and the γb (basic surface energy component) was 4.37 mJ/m^2. The “γtot (total surface energy)” value in data set [4] is on record as 52.96 mJ/m^2.

Consider `CCC(C)(C)C(=O)O[C@H]1C[C@@H](C)C=C2C=C[C@H](C)[C@H](CC[C@@H]3C[C@@H](O)CC(=O)O3)[C@H]21` [Simvastatin, simvastatin], for which the “ΔH^m (heat of fusion)” value in data set [2] turned out to be 6.969 ± 0.198 kcal/mol. In data set [3], the “A (PSP)” value was 0.20, the “B (PSP)” value is 0.7 ± 0.2 and the “S (PSP)” value is 4.28. Moreover, in data set [4], the “γd (dispersion component of surface energy)” value is given as 57.36 mJ/m^2, the “γhb” value was determined as 2.64 mJ/m^2, the γa (acidic surface energy component) was determined as 0.71 mJ/m^2 and the γb (basic surface energy component) came to 2.47 mJ/m^2. The “γtot (total surface energy)” value in data set [4] worked out at 60.00 mJ/m^2.

For the molecule `COc1cc(C(=O)NS(=O)(=O)c2ccccc2C)ccc1Cc1cn(C)c2ccc(NC(=O)OC3CCCC3)cc12` [Zafirlukast, zafirlukast], in data set [5], the “Residual solid form after solubility equilibration (XRPD)” value is “at least one different solid form following equilibration”. Further, in data set [1], the “σGa (acidity PSP)” value came to 4.03 MPa^0.5, the “σGb (basicity PSP)” value is listed as 6.94 MPa^0.5, the “σd (dispersion PSP)” value is 19.60 MPa^0.5 and the “σhb (hydrogen-bonding PSP)” value was found to be 9.01 MPa^0.5. Besides, in data set [1], the “σp (polarity PSP)” value came to 10.33 MPa^0.5 and the “σtot (square root of total cohesive energy density, equivalent to δtot)” value came out at 23.92 MPa^0.5. The “ΔH^m (heat of fusion)” value in data set [2] came to 4.68 ± 0.406 kcal/mol. Further, in data set [3], the “A (PSP)” value was 0.71, the “B (PSP)” value is given as 2.1 and the “S (PSP)” value was 4.66. Moreover, in data set [4], the “γd (dispersion component of surface energy)” value is reported as 49.43 mJ/m^2, the “γhb” value amounted to 5.64 mJ/m^2, the γa (acidic surface energy component) was determined as 1.64 mJ/m^2 and the γb (basic surface energy component) came to 4.85 mJ/m^2. Further, the “γtot (total surface energy)” value in data set [4] was determined as 55.07 mJ/m^2.
